According to PubChem BioAssay (NCI):
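Briefly, cells in 96-well plates were exposed to five compound concentrations for 48 h, and endpoints were estimated by linear interpolation. At the GI50, growth is halved. TGI: total growth inhibition.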

Legend:
Assay in all cases: NCI-60 cell line screen, 48 h
SK-OV-3 ovarian = tested on: SK-OV-3 ovarian
HL-60(TB) leukemia = tested on: HL-60(TB) leukemia
HCC-2998 colon = tested on: HCC-2998 colon
ACHN renal = tested on: ACHN renal
PC-3 prostate = tested on: PC-3 prostate
SK-MEL-28 melanoma = tested on: SK-MEL-28 melanoma
A498 renal = tested on: A498 renal
T-47D breast = tested on: T-47D breast
MCF7 breast = tested on: MCF7 breast
OVCAR-8 ovarian = tested on: OVCAR-8 ovarian
CAKI-1 renal = tested on: CAKI-1 renal
CCRF-CEM leukemia = tested on: CCRF-CEM leukemia
NCI-H23 lung = tested on: NCI-H23 lung
COLO 205 colon = tested on: COLO 205 colon
SW-620 colon = tested on: SW-620 colon
UACC-62 melanoma = tested on: UACC-62 melanoma
A549 NSCLC = tested on: A549 NSCLC
SF-539 CNS = tested on: SF-539 CNS
NCI-H522 lung = tested on: NCI-H522 lung
DU-145 prostate = tested on: DU-145 prostate
NCI/ADR-RES ovarian = tested on: NCI/ADR-RES ovarian
K-562 leukemia = tested on: K-562 leukemia
SF-295 CNS = tested on: SF-295 CNS
EKVX NSCLC = tested on: EKVX NSCLC
RPMI-8226 leukemia = tested on: RPMI-8226 leukemia
BT-549 breast = tested on: BT-549 breast
M14 melanoma = tested on: M14 melanoma
MDA-N = tested on: MDA-N
SF-268 CNS = tested on: SF-268 CNS
HCT-15 colon = tested on: HCT-15 colon
HCT-116 colon = tested on: HCT-116 colon
SK-MEL-2 melanoma = tested on: SK-MEL-2 melanoma
HS 578T breast = tested on: HS 578T breast
HT29 colon = tested on: HT29 colon
TK-10 renal = tested on: TK-10 renal
RXF 393 renal = tested on: RXF 393 renal
NCI-H460 lung = tested on: NCI-H460 lung
SK-MEL-5 melanoma = tested on: SK-MEL-5 melanoma
UO-31 renal = tested on: UO-31 renal
MDA-MB-435 = tested on: MDA-MB-435
MOLT-4 leukemia = tested on: MOLT-4 leukemia
HOP-92 NSCLC = tested on: HOP-92 NSCLC
MDA-MB-231 breast = tested on: MDA-MB-231 breast
OVCAR-3 ovarian = tested on: OVCAR-3 ovarian
KM12 colon = tested on: KM12 colon
SNB-19 CNS = tested on: SNB-19 CNS
786-0 renal = tested on: 786-0 renal
UACC-257 melanoma = tested on: UACC-257 melanoma
HOP-62 NSCLC = tested on: HOP-62 NSCLC
SN12C renal = tested on: SN12C renal
U251 CNS = tested on: U251 CNS
LOX IMVI melanoma = tested on: LOX IMVI melanoma
SR leukemia = tested on: SR leukemia
NCI-H226 lung = tested on: NCI-H226 lung
MALME-3M melanoma = tested on: MALME-3M melanoma
IGROV1 ovarian = tested on: IGROV1 ovarian
SNB-75 CNS = tested on: SNB-75 CNS
OVCAR-5 ovarian = tested on: OVCAR-5 ovarian
OVCAR-4 ovarian = tested on: OVCAR-4 ovarian

## O/N=C/C1c2ccccc2-c2ccccc21
SK-OV-3 ovarian
  TGI: 36.2 µM
HL-60(TB) leukemia
  TGI: 93.7 µM
HCC-2998 colon
  TGI: 31.9 µM
ACHN renal
  TGI: 32.2 µM
PC-3 prostate
  TGI: 36.9 µM
SK-MEL-28 melanoma
  TGI: 29.2 µM
A498 renal
  TGI: 32.9 µM
T-47D breast
  TGI: 56.3 µM
MCF7 breast
  TGI: 33.7 µM
OVCAR-8 ovarian
  TGI: 41.5 µM
CAKI-1 renal
  TGI: 33.2 µM
CCRF-CEM leukemia
  TGI: 50.4 µM
NCI-H23 lung
  TGI: 37.6 µM
COLO 205 colon
  TGI: 30.7 µM
SW-620 colon
  TGI: 40.7 µM
UACC-62 melanoma
  TGI: 30.2 µM
A549 NSCLC
  TGI: 51.5 µM
SF-539 CNS
  TGI: 31 µM
NCI-H522 lung
  TGI: 33.4 µM
DU-145 prostate
  TGI: 45.9 µM
NCI/ADR-RES ovarian
  TGI: 33.8 µM
K-562 leukemia
  TGI: 67.3 µM
SF-295 CNS
  TGI: 53.4 µM
EKVX NSCLC
  TGI: 28.2 µM
RPMI-8226 leukemia
  TGI: 52.8 µM
BT-549 breast
  TGI: 33.1 µM
M14 melanoma
  TGI: 32.7 µM
MDA-N
  TGI: 31.9 µM
SF-268 CNS
  TGI: 37.6 µM
HCT-15 colon
  TGI: 40.2 µM
HCT-116 colon
  TGI: 32.8 µM
SK-MEL-2 melanoma
  TGI: 36.1 µM
HS 578T breast
  TGI: 47.6 µM
HT29 colon
  TGI: 28.6 µM
TK-10 renal
  TGI: 34.9 µM
RXF 393 renal
  TGI: 41.5 µM
NCI-H460 lung
  TGI: 36 µM
SK-MEL-5 melanoma
  TGI: 25.4 µM
UO-31 renal
  TGI: 32.4 µM
MDA-MB-435
  TGI: 34.3 µM
MOLT-4 leukemia
  TGI: 52.6 µM
HOP-92 NSCLC
  TGI: 28 µM
MDA-MB-231 breast
  TGI: 29 µM
OVCAR-3 ovarian
  TGI: 34.1 µM
KM12 colon
  TGI: 37.4 µM
SNB-19 CNS
  TGI: 38.6 µM
786-0 renal
  TGI: 21.9 µM
UACC-257 melanoma
  TGI: 34 µM
HOP-62 NSCLC
  TGI: 34.2 µM
SN12C renal
  TGI: 31.9 µM
U251 CNS
  TGI: 44 µM
LOX IMVI melanoma
  TGI: 63.3 µM
SR leukemia
  TGI: 51.7 µM
NCI-H226 lung
  TGI: 33.6 µM
MALME-3M melanoma
  TGI: 31.9 µM

## Cc1nn(-c2cc(Cl)ccc2[N+](=O)[O-])c(C)c1Cl
SK-OV-3 ovarian
  TGI: > 100 µM
HL-60(TB) leukemia
  TGI: > 100 µM
HCC-2998 colon
  TGI: > 100 µM
ACHN renal
  TGI: > 100 µM
PC-3 prostate
  TGI: > 100 µM
SK-MEL-28 melanoma
  TGI: > 100 µM
A498 renal
  TGI: > 100 µM
IGROV1 ovarian
  TGI: > 100 µM
T-47D breast
  TGI: > 100 µM
MCF7 breast
  TGI: > 100 µM
OVCAR-8 ovarian
  TGI: > 100 µM
CAKI-1 renal
  TGI: > 100 µM
CCRF-CEM leukemia
  TGI: > 100 µM
NCI-H23 lung
  TGI: > 100 µM
COLO 205 colon
  TGI: > 100 µM
SW-620 colon
  TGI: > 100 µM
UACC-62 melanoma
  TGI: > 100 µM
A549 NSCLC
  TGI: > 100 µM
SF-539 CNS
  TGI: > 100 µM
SNB-75 CNS
  TGI: > 100 µM
NCI-H522 lung
  TGI: > 100 µM
DU-145 prostate
  TGI: > 100 µM
NCI/ADR-RES ovarian
  TGI: > 100 µM
K-562 leukemia
  TGI: > 100 µM
SF-295 CNS
  TGI: > 100 µM
EKVX NSCLC
  TGI: > 100 µM
RPMI-8226 leukemia
  TGI: > 100 µM
BT-549 breast
  TGI: > 100 µM
M14 melanoma
  TGI: > 100 µM
MDA-N
  TGI: > 100 µM
SF-268 CNS
  TGI: > 100 µM
HCT-15 colon
  TGI: > 100 µM
HCT-116 colon
  TGI: > 100 µM
SK-MEL-2 melanoma
  TGI: > 100 µM
HS 578T breast
  TGI: > 100 µM
HT29 colon
  TGI: > 100 µM
TK-10 renal
  TGI: > 100 µM
RXF 393 renal
  TGI: 76 µM
NCI-H460 lung
  TGI: > 100 µM
SK-MEL-5 melanoma
  TGI: > 100 µM
UO-31 renal
  TGI: > 100 µM
MDA-MB-435
  TGI: > 100 µM
MOLT-4 leukemia
  TGI: > 100 µM
MDA-MB-231 breast
  TGI: > 100 µM
OVCAR-3 ovarian
  TGI: > 100 µM
OVCAR-5 ovarian
  TGI: > 100 µM
KM12 colon
  TGI: > 100 µM
SNB-19 CNS
  TGI: > 100 µM
786-0 renal
  TGI: > 100 µM
UACC-257 melanoma
  TGI: > 100 µM
HOP-62 NSCLC
  TGI: > 100 µM
SN12C renal
  TGI: > 100 µM
U251 CNS
  TGI: > 100 µM
LOX IMVI melanoma
  TGI: > 100 µM
SR leukemia
  TGI: > 100 µM
NCI-H226 lung
  TGI: > 100 µM
MALME-3M melanoma
  TGI: > 100 µM
OVCAR-4 ovarian
  TGI: > 100 µM

## CC[C@@]1(O)C(=O)OCc2c1cc1n(c2=O)Cc2c-1nc1cc3c(cc1c2CCl)OCO3
SK-OV-3 ovarian
  GI50: < 0.01 µM
  TGI: 1.07 µM
HL-60(TB) leukemia
  GI50: < 0.01 µM
HCC-2998 colon
  GI50: 0.365 µM
  TGI: 8.58 µM
ACHN renal
  GI50: < 0.01 µM
  TGI: 0.0322 µM
PC-3 prostate
  GI50: 0.0392 µM
  TGI: > 36.4 µM
SK-MEL-28 melanoma
  GI50: 2.33 µM
  TGI: 18.9 µM
A498 renal
  GI50: < 0.0151 µM
  TGI: 0.753 µM
IGROV1 ovarian
  GI50: 0.139 µM
  TGI: 5.75 µM
T-47D breast
  GI50: < 0.01 µM
  TGI: > 71.9 µM
MCF7 breast
  GI50: < 0.01 µM
  TGI: > 100 µM
OVCAR-8 ovarian
  GI50: < 0.01 µM
  TGI: 0.602 µM
CAKI-1 renal
  GI50: < 0.01 µM
  TGI: 0.477 µM
CCRF-CEM leukemia
  GI50: < 0.01 µM
NCI-H23 lung
  GI50: < 0.01 µM
  TGI: < 0.0153 µM
COLO 205 colon
  GI50: 1.15 µM
  TGI: 3.4 µM
SW-620 colon
  GI50: < 0.0136 µM
UACC-62 melanoma
  GI50: < 0.01 µM
  TGI: 0.205 µM
A549 NSCLC
  GI50: < 0.01 µM
  TGI: 3.25 µM
SF-539 CNS
  GI50: < 0.01 µM
  TGI: < 0.0135 µM
SNB-75 CNS
  GI50: < 0.01 µM
  TGI: 2.08 µM
NCI-H522 lung
  GI50: < 0.01 µM
  TGI: 1.36 µM
DU-145 prostate
  GI50: < 0.01 µM
NCI/ADR-RES ovarian
  GI50: < 0.01 µM
  TGI: 0.133 µM
SF-295 CNS
  GI50: < 0.01 µM
  TGI: 0.0252 µM
EKVX NSCLC
  GI50: 0.994 µM
  TGI: > 44.6 µM
RPMI-8226 leukemia
  GI50: < 0.01 µM
  TGI: 0.309 µM
BT-549 breast
  GI50: 0.106 µM
  TGI: 3.99 µM
M14 melanoma
  GI50: 0.032 µM
  TGI: 0.403 µM
MDA-N
  GI50: < 0.01 µM
  TGI: 1.63 µM
SF-268 CNS
  GI50: < 0.01 µM
  TGI: 4.62 µM
HCT-15 colon
  GI50: 0.192 µM
  TGI: 12.3 µM
HCT-116 colon
  GI50: < 0.01 µM
  TGI: 0.294 µM
SK-MEL-2 melanoma
  GI50: 0.206 µM
  TGI: 1.22 µM
HS 578T breast
  GI50: 1.29 µM
  TGI: > 54.1 µM
HT29 colon
  GI50: 0.0271 µM
  TGI: > 22.3 µM
TK-10 renal
  GI50: 0.292 µM
  TGI: 11.1 µM
RXF 393 renal
  GI50: < 0.0138 µM
  TGI: 1.21 µM
NCI-H460 lung
  GI50: < 0.01 µM
  TGI: < 0.0318 µM
SK-MEL-5 melanoma
  GI50: < 0.01 µM
  TGI: 1.13 µM
UO-31 renal
  GI50: < 0.01 µM
  TGI: 0.756 µM
MDA-MB-435
  GI50: 0.0592 µM
  TGI: 2.24 µM
MOLT-4 leukemia
  GI50: < 0.01 µM
  TGI: < 0.038 µM
HOP-92 NSCLC
  GI50: < 0.01 µM
  TGI: 0.466 µM
MDA-MB-231 breast
  GI50: 1.38 µM
  TGI: 20.7 µM
OVCAR-3 ovarian
  GI50: 0.333 µM
  TGI: 3.07 µM
OVCAR-5 ovarian
  GI50: 0.0593 µM
  TGI: 2.12 µM
KM12 colon
  GI50: 0.181 µM
  TGI: 1.88 µM
SNB-19 CNS
  GI50: < 0.018 µM
  TGI: > 100 µM
786-0 renal
  GI50: < 0.01 µM
  TGI: 0.238 µM
UACC-257 melanoma
  GI50: < 0.0446 µM
  TGI: 1.59 µM
HOP-62 NSCLC
  GI50: < 0.01 µM
  TGI: < 0.0479 µM
SN12C renal
  GI50: < 0.01 µM
  TGI: 0.367 µM
U251 CNS
  GI50: < 0.01 µM
  TGI: 1.9 µM
LOX IMVI melanoma
  GI50: < 0.01 µM
  TGI: 0.426 µM
SR leukemia
  GI50: < 0.01 µM
NCI-H226 lung
  GI50: < 0.01 µM
  TGI: 1.3 µM
MALME-3M melanoma
  GI50: 0.0629 µM
  TGI: 2 µM
OVCAR-4 ovarian
  GI50: 0.693 µM
  TGI: 11.6 µM
